Values after ≈ are worked out from the molar mass of the structure shown.
How the values were obtained:
[1] = Metabolic stability in human liver microsomes; assay type: in vitro ADME; conditions: human, read-out: Half life, t1/2 HLM
[2] = Metabolic stability in human S9 fraction; assay type: in vitro ADME; conditions: read-out: Half life, t1/2 S9
[3] = Chemical stability (H2O, pH 7.4); assay type: physicochemical
Average permeability = assay type: in vitro ADME; conditions: not told
MGAT3 [4] = test: MGAT3 transcription ratio, AD patient / control PBMCs (qPCR); assay type: cell-based, human; conditions: Aβ stimulation
Experimental: (§1) qPCR reactions of cultured monocyte cDNAs. One μL total cellular cDNA per reaction is used in triplicate reactions for each test gene, and for each culture treatment. SYBR-Green reactions were run on a Continuous Fluorescence real-time thermocycler and analyzed. Cycle threshold (Ct) values are recorded for each replicate reaction, and are then averaged and normalized against mean Ct values from one or more control genes. Fold-expression differences relative to untreated cells are determined using the 2^−ΔΔCt method as previously described. Data from the curcumin concentration range are plotted in order to determine EC50 values (concentrations producing one-half maximal stimulant activity), which are used for comparisons of potency between different compounds. Data are also evaluated for each gene with regard to sensitivity, maximally effective concentration of curcuminoid, response to Aβ, and overall magnitude of fold-expression changes.
(§2) MGAT3 and/or TLR transcription were tested by qPCR in human monocyte cells treated with curcuminoids and compared the results to those treated with vehicle (Table 7). As discussed above, activation or up-regulation of macrophage MGAT3 or TLR's results in many functional outcomes, including the enhancement of […] and removal of Aβ, increased apoptosis, secretion of inflammatory cytokines, and other anti-AD antimicrobial activities. […] Thus, the ratio of MGAT3 or TLR transcription upon Aβ stimulation of human monocytes versus vehicle treatment provides an indicator and sensitive method to test the in vitro efficacy of drug candidates. […] The relative biological activity of the curcumin analogs in AD patient and control cells was ascertained in the in vitro Aβ assay described above (see Example 2).

MGAT3 [5] = test: MGAT3 gene expression by qPCR in U-937 human monocytic cells treated with curcumins plus Aβ; assay type: cell-based; conditions: human monocytic cells (U-937), curcumin plus Aβ
Experimental: (§3) Cell culture conditions for monocytic cell lines. Human and mouse monocyte cell lines are grown in RPMI-1640 medium with 10% fetal bovine serum (FBS), plus glutamine and pen/strep. For treatment with compounds (curcuminoids+/−Aβ), replicate sets of 0.5-1.0 mL cultures containing 1-2×10^6 cells are set up in the wells of 48-well tissue culture plates. Both replicate sets have at least one control well receiving no added curcuminoid to provide baseline expression controls for untreated, and Aβ-only treated cells. Remaining wells receive curcuminoid in a range of 10-fold serial dilutions in DMSO, typically from […] Cultures are incubated for 20-24 hours (“overnight”) at 37° C. in atmosphere with 5% CO2. After one overnight, to one of replicate sets of cultures is added Aβ (1-42) peptide to a final concentration of 5 μg/mL.
(§4) RNA isolation and cDNA synthesis. After the first overnight incubation in the presence of curcuminoid, cells from one replicate set of wells are collected by centifugation. RNAs are extracted from pelleted cells using miniprep column kits following manufacturer's protocol for animal cells. […] of total cellular RNA from each well is quantitated using a Nanodrop spectrophotometer, and first-strand total cDNA is prepared from 0.3-1.0 μg RNA by random-hexamer priming. Following the second 20 hr. incubation in the presence of Aβ, RNA extractions and cDNA synthesis are similarly performed.
Assay development. Gene-specific mRNA levels are determined using a real-time thermocycler, and by normalizing to expression of one or more control genes. Assays for quantifying mRNA levels are based on gene sequences reported in NCBI Genbank. PCR oligonucleotide primers are selected spanning introns to minimize the opportunity for amplication from any contaminating genomic DNA in the RNA preps. Oligonucleotides are typically tested and used at a concentration of 200 nM in qPCR reactions containing SYBR dye. Control reactions include template from cDNA synthesis reactions either + or − reverse transcriptase (RT), as well as no-template controls (ntc). […] Melt curves based on incremental 0.5° C. increases are determined for new assays to test for uniformity of amplified products. […]
qPCR reactions of cultured monocyte cDNAs. […] SYBR-Green reactions were run on a Continuous Fluorescence real-time thermocycler and analyzed. Cycle threshold (Ct) values are recorded for each replicate reaction, and are then averaged and normalized against mean Ct values from one or more control genes. Fold-expression differences relative to untreated cells are determined using the 2^−ΔΔCt method as previously described. […] Data are also evaluated for each gene with regard to sensitivity, maximally effective concentration of curcuminoid, response to Aβ, and overall magnitude of fold-expression changes. […]

TLR2 = TLR2 gene expression by qPCR in U-937 human monocytic cells treated with curcumins plus Aβ; assay type: cell-based; conditions: human monocytic cells (U-937), curcumin plus Aβ
Experimental: as §3, §4
(§5) Assay development. Gene-specific mRNA levels are determined using a real-time thermocycler, and by normalizing to expression of one or more control genes. Assays for quantifying mRNA levels are based on gene sequences reported in NCBI Genbank. PCR oligonucleotide primers are selected spanning introns to minimize the opportunity for amplication from any contaminating genomic DNA in the RNA preps. Oligonucleotides are typically tested and used at a concentration of 200 nM in qPCR reactions containing SYBR dye. Control reactions include template from cDNA synthesis reactions either + or − reverse transcriptase (RT), as well as no-template controls (ntc). All reactions are performed in triplicate. Reactions are typically run with 40 cycles of 95° C. (10 sec) and 58° C. (30 sec). Melt curves based on incremental 0.5° C. increases are determined for new assays to test for uniformity of amplified products. Reaction conditions are modified as needed depending on initial test results. ‘Working’ assays are selected based on clear RNA-dependent amplification and absence of product in ‘ntc’ reactions. The following assay primers are used: […]
(§6) qPCR reactions of cultured monocyte cDNAs. One μL total cellular cDNA per reaction is used in triplicate reactions for each test gene, and for each culture treatment. SYBR-Green reactions were run on a Continuous Fluorescence real-time thermocycler and analyzed. Cycle threshold (Ct) values are recorded for each replicate reaction, and are then averaged and normalized against mean Ct values from one or more control genes. Fold-expression differences relative to untreated cells are determined using the 2^−ΔΔCt method as previously described. […] Data are also evaluated for each gene with regard to sensitivity, maximally effective concentration of curcuminoid, response to Aβ, and overall magnitude of fold-expression changes. […]

TLR3 = TLR3 gene expression by qPCR in U-937 human monocytic cells treated with curcumins plus Aβ; assay type: cell-based; conditions: for Relative gene expression TLR3, increased expression relative to control cells: human monocytic cells (U-937), curcumin plus Aβ
Experimental: as §3, §4, §5, §1
(§7) Data showing in vitro up-regulation of genes associated with Aβ phagocytosis in response to curcumins. Natural curcumins and synthetic analogs were tested in U-937 human monocyte cells in vitro for their ability to modulate expression of the genes MGAT3 and TLRs −2, −3, and −4. […]

TLR4 = TLR4 gene expression by qPCR in U-937 human monocytic cells treated with curcumins plus Aβ; assay type: cell-based; conditions: human monocytic cells (U-937), curcumin plus Aβ
Experimental: as §3, §4, §5, §6

VDR = VDR gene expression by qPCR in U-937 human monocytic cells treated with curcumins plus Aβ; assay type: cell-based; conditions: for Relative gene expression VDR, increased expression relative to control cells: human monocytic cells (U-937), curcumin plus Aβ
Experimental: as §3, §4, §5, §1, §7

Average solubility = assay type: physicochemical
TLR 2 = TLR 2 transcription ratio, AD patient / control PBMCs (qPCR); assay type: cell-based, human; conditions: Aβ stimulation
Experimental: as §1, §2

TLR 3 = TLR 3 transcription ratio, AD patient / control PBMCs (qPCR); assay type: cell-based, human; conditions: Aβ stimulation
Experimental: as §1, §2

TLR 4 = TLR 4 transcription ratio, AD patient / control PBMCs (qPCR); assay type: cell-based, human; conditions: Aβ stimulation
Experimental: as §1, §2

[6] = water (aqueous solution), pH 7.4, value given in h, read-out: Chemical stability t1/2 pH 7.4 (converted)
[7] = water, H2O, value given in h, read-out: Chemical stability t1/2 H2O (converted)

Compound	half-life [1] [min]	half-life [2] [min]	Chemical stability H2O (stable/unstable) ([3]; H2O)	Chemical stability pH 7.4 (stable/unstable) ([3]; pH 7.4)	Papp (Average permeability) [×10⁻⁶ cm/s]	Relative ratio of MGAT3 transcription in AD patient / control PBMC's (MGAT3 [4])	Relative gene expression MGAT3, increased expression relative to control cells (MGAT3 [5])	Relative gene expression TLR2, increased expression relative to control cells (TLR2)	Relative gene expression TLR3, increased expression relative to control cells (TLR3)	Relative gene expression TLR4, increased expression relative to control cells (TLR4)	Relative gene expression VDR, increased expression relative to control cells (VDR)	half-life [3, 6] [min]	half-life [3, 7] [min]	IC50 (Anti-oxidant activity) [µM]	Solubility compared with parent compounds (in words) (Average solubility)	solubility (Average solubility) [µg/mL]	Relative ratio of TLR 2 transcription in AD patient / control PBMC's (TLR 2)	Relative ratio of TLR 3 transcription in AD patient / control PBMC's (TLR 3)	Relative ratio of TLR 4 transcription in AD patient / control PBMC's (TLR 4)	also measured
COc1cc(N(C)C)ccc1/C=C/C(O)=C1\CCC/C(=C\c2ccc(N(C)C)cc2OC)C1=O [Compound 7, 2-(4-(Dimethylamino-2-methoxybenzylidene)-3-(4-(dimethylamino)-2-methoxyphenyl)-1-hydroxyallylidene)cyclohexanone]	127	184	stable^a (stability half-lives greater than 5 hours)	stable (stability half-lives greater than 5 hours)	4.8	+++ ((+++ to ++++) indicates a ratio of 2.0 and above)														
CC(C)C(N)C(=O)Oc1ccc(/C=C/C(=O)/C=C(O)/C=C/c2ccc(OC(=O)C(N)C(C)C)cc2)cc1 (centres unmarked) [Compound 33, 4,4′-(3,5-Dioxohepta-1,6-diene-1,7-diyl)bis(4,1-phenylene) bis(2-amino-3-methylbutanoate)]	23.8	5.9			316	+ ((+) indicates a ratio of 1.0-1.5)	+++ ((+++) >40-fold)	+ ((+) <20-fold)	+ ((+) <20-fold)	+ ((+) <20-fold)	++ ((++) >20-fold)	60	1130	> 250	significantly improved solubility	18.2 (≈ 35.9 µM)	TLR 2 ++ ((++) indicates a ratio of 1.5-2.0)	TLR 3 ++ ((++) indicates a ratio of 1.5-2.0)	TLR 4 + ((+) indicates a ratio of 1.0-1.5)	TLR3 expression response (in words) (TLR3; U-937, plus Aβ (FIG. 3)): limited response; VDR normalized expression response (in words) (VDR; human monocytes, plus Aβ): somewhat higher expression
COc1ccc(F)cc1/C=C/C(=O)/C=C(O)/C=C/c1cc(F)ccc1OC [Compound 26, 1,7-bis-(5-Fluoro-2-methoxyphenyl)-5-hydroxy-hepta-1,4,6-trien-3-one]	59.2	8.2	stable (stability half-lives greater than 5 hours)	stable (stability half-lives greater than 5 hours)	129									> 250		0.44 (≈ 1.18 µM)	TLR 2 + ((+) indicates a ratio of 1.0-1.5)	TLR 3 ++ ((++) indicates a ratio of 1.5-2.0)	TLR 4 + ((+) indicates a ratio of 1.0-1.5)	
COc1cc(/C=C/C(=O)/C=C(O)/C=C/c2ccc(OC(=O)C(N)C(C)C)c(OC)c2)ccc1OC(=O)C(N)C(C)C (centres unmarked) [Compound 35, 4,4′-(3,5-Dioxohepta-1,6-diene-1,7-diyl)bis(2-methoxy-4,1-phenylene)bis(2-amino-3-methylbutanoate)]	55.8	9			572	++ ((++) indicates a ratio of 1.5-2.0)						138	1090			22.8 (≈ 40.2 µM)	TLR 2 +++ ((+++ to ++++) indicates a ratio of 2.0 and above)		TLR 4 + ((+) indicates a ratio of 1.0-1.5)	
COc1cc(N(C)C)ccc1/C=C/C(=O)/C=C(O)/C=C/c1ccc(N(C)C)cc1OC [Compound 3, 1,7-Bis(4-dimethylamino-2-methoxyphenyl)-5-hydroxy-hepta-1,4,6-trien-3-one]	63.6	39.5				++ ((++) indicates a ratio of 1.5-2.0)						1530	1190			0.73 (≈ 1.73 µM)	TLR 2 ++ ((++) indicates a ratio of 1.5-2.0)	TLR 3 ++ ((++) indicates a ratio of 1.5-2.0)	TLR 4 ++ ((++) indicates a ratio of 1.5-2.0)	
COc1cc(/C=C/C(=O)/C=C(O)/C=C/c2ccc(OC(=O)C(N)CCCCN)c(OC)c2)ccc1OC(=O)C(N)CCCCN (centres unmarked) [Compound 36, 4,4′-(3,5-dioxohepta-1,6-diene-1,7-diyl)bis(2-methoxy-4,1-phenylene)bis(2,6-diaminohexanoate)]	19.9	4.5		unstable (stability half-lives less than 5 minutes)	718		+ ((+) <20-fold)	+ ((+) <20-fold)	+ ((+) <20-fold)	+ ((+) <20-fold)	+ ((+) <20-fold)				significantly improved solubility	30.6 (≈ 49 µM)				half-life ([3]; water, H2O, read-out: Chemical stability t1/2 H2O (converted)): 10.2 min

— patent US20120040976A1, “SMALL MOLECULE IMMUNOMODULATORS FOR ALZHEIMER'S DISEASE” (HUMAN BIOMOLECULAR RESEARCH INSTITUTE, priority 2008, published 2012)
